In US9056840B2, “Coelenterazine analogues and coelenteramide analogues” (JNC Corporation, priority 2010, dated 2015):
Entries after “also recorded” stand apart in the source; their conditions may differ.

How the values were obtained:
[1] = Fluorescence spectra of coelenteramide analogue alone (absence of apoaequorin); format: physicochemical; settings: analogue alone 8 μg/ml
Procedure, shortened: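 Coelenteramide analogue at 8 μg/ml without apoaequorin in 50 mM Tris-HCl pH 7.6 with 1 mM DTT plus either 10 mM EDTA or 10 mM CaCl2. Fluorescence spectra recorded at 25° C, excitation 337 nm, 3 nm bandwidth.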

apoaequorin [2] = molecular target: T1, apoaequorin (Aequorea victoria, UniProt P07164); test: Fluorescence spectra of semi-synthetic gFP (coelenteramide analogue + apoaequorin, EDTA); format: physicochemical; settings: 10 mM EDTA buffer, excitation 337 nm
T1 construct: purchased Chisso Corporation
Procedure, shortened: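 Apoaequorin (0.2 mg) incubated with coelenteramide analogue 16 h at 4 °C in 50 mM Tris-HCl pH 7.6, 10 mM EDTA, 1 mM DTT to form semi-synthetic gFP. Emission spectra at 25 °C, excitation 337 nm. Analogue-alone controls at 8 μg/ml final, in EDTA or 10 mM CaCl2 buffer.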

apoaequorin [3] = molecular target: T1, apoaequorin; test: Luciferase activity of semi-synthetic BFPs using coelenterazine as substrate; format: biochemical; settings: Imax, 10 mM CaCl2, 10 seconds, BFP from CTMD = 100
Description: To confirm that semi-synthetic BFPs prepared from coelenteramide analogues and apoaequorin, which are novel fluorescent proteins having luciferase activity, the luminescence reaction was performed in the presence of calcium ions, using coelenterazine as a light emitting substrate. After 5 μl (corresponding to 1 μg protein) of a solution of semi-synthetic BFP prepared in EXAMPLE 12 was added to 100 μl of 50 mM Tris-HC 1 (pH 7.6) containing 10 mM CaCl2, 1 μl of a solution of coelenterazine (1 μg/μl) in ethanol was mixed with the solution to start the luminescence reaction. The luminescence activity was measured for 10 seconds on a luminometer luminescencer-PSN AB2200 (manufactured by Atto Co., Ltd.). The luminescence activity was determined by repeating the measurement of luminescence activity described above twice and expressed in terms of the maximum luminescence intensity (Imax) of luminescence activity.

apoaequorin [4] = molecular target: T1, apoaequorin; test: Fluorescence spectra of semi-synthetic BFP (coelenteramide analogue + apoaequorin, CaCl2); format: physicochemical; settings: 10 mM CaCl2 buffer, excitation 337 nm
Procedure, shortened: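 Apoaequorin (0.2 mg) was mixed with coelenteramide analogue in 50 mM Tris-HCl pH 7.6, 10 mM CaCl2, 1 mM DTT and held 16 h at 4° C. Analogue-alone controls were run at 8 μg/ml final in the same buffer with 10 mM EDTA or CaCl2. Spectra were recorded at 25° C., excitation 337 nm.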

apoaequorin [5] = molecular target: T1, apoaequorin; test: Fluorescence spectra of fluorescent proteins formed from semi-synthetic aequorins by Ca2+; format: physicochemical; settings: for Maximum fluorescence wavelength λmax (nm) / Relative fluorescence intensity (rlu): fluorescent protein generated by calcium from semi-synthetic aequorin, excitation 330 nm, 25° C.; for fluorescence spectra of fluorescent proteins versus emission spectra of semi-synthetic aequorins, in words: same coelenterazine analogue
Description: The fluorescence spectra of novel fluorescent proteins formed by the Ca^2+-triggerd reaction from semi-synthetic aequorins in EXAMPLE 3 were measured at 25° C. in a quartz cell (10 mm light path length) using a Jasco FP-6500 spectrofluorometer (excitation wavelength: 330 nm, emission/excitation bandwidth: 3 nm; response: 0.5 sec, scan speed, 1000 nm/min). The fluorescence spectra measured were corrected.

[6] = molecular target: T2, 19 kDa protein from Oplophorus luciferase (Oplophorus gracilirostris, UniProt Q9GV45); test: Substrate specificity and luminescence activity of the 19 kDa protein from Oplophorus luciferase; format: biochemical; settings: measured for 60 seconds, coelenterazine = 100
T2 construct: made in house
Description: The 19 kDa protein from Oplophorus luciferase was purified by the method described in Inouye, S. and Sasaki, S., Protein Express. Purif. (2007) 56: 261-268 and provided for use.
(§1) After 1 μl of the 19 kDa protein (2.3 mg/ml) from Oplophorus luciferase containing 1 mM DTT was dissolved in 100 μl of 30 mM Tris-HCl (pH 7.6) containing 10 mM EDTA, 1 μl of a solution of coelenterazine or its analogue (1 μg/μl) in ethanol was added to the solution to start the luminescence reaction, and the luminescence activity was measured for 60 seconds on a luminometer luminescencer-PSN AB2200 (manufactured by Atto Co., Ltd.). The luminescence activity was determined by repeating the measurement described above 3 times and expressed in terms of the maximum luminescence intensity (Imax) of luminescence activity.

Renilla luciferase = molecular target: T3, Renilla luciferase (Renilla reniformis, UniProt P27652); test: Substrate specificity and luminescence activity of Renilla luciferase; format: biochemical; settings: measured for 10 seconds, coelenterazine = 100
T3 construct: made in house
T3 sequence (P27652 1-311): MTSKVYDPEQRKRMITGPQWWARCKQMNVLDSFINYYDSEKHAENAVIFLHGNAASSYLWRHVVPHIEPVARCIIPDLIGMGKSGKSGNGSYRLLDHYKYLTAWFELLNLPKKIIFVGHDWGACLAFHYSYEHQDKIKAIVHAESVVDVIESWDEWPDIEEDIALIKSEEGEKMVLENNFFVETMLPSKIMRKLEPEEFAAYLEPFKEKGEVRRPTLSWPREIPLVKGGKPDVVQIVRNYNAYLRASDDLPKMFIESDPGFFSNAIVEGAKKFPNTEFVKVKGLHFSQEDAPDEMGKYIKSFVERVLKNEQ
Description: Renilla luciferase was purified by the method described in Inouye, S. & Shimomura, O. Biochem. Biophys. Res. Commun. (1997) 233: 349-353, and used for assay.
as §1, with “Renilla luciferase (0.45” for “the 19 kDa protein (2.3”, “mg/ml)” for “mg/ml) from Oplophorus luciferase containing 1 mM DTT”, “reaction. The” for “reaction, and the”, “10” for “60”, “measurement of luminescence activity” for “measurement”

apoaequorin [7] = molecular target: T1, apoaequorin; test: Calcium standard curve with semi-synthetic aequorins; format: biochemical; settings: FIG. 3; Imax versus calcium concentration
Description: In 9 ml of 50 mM Tris-HCl (pH 7.6), 1 ml of 1 g/L calcium carbonate standard solution (manufactured by Wako Pure Chemicals) was diluted to prepare 10^−3 M calcium carbonate solution. One milliliter of the resulting 10^−3 M calcium carbonate solution was taken and added to 9 ml of 50 mM Tris-HCl (pH 7.6) to prepare 10^−4 M calcium carbonate solution. Next, 3 ml of the resulting 10^−4 M calcium carbonate solution was taken and added to 6 ml of 50 mM Tris-HCl (pH 7.6) to prepare […] calcium carbonate solution. One milliliter from the 10^−4 M calcium carbonate solution obtained was added to 9 ml of 50 mM Tris-HCl (pH 7.6) to prepare 10^−5 M calcium carbonate solution. Then, 3 ml of the resulting 10^−5 M calcium carbonate solution was taken and added to 6 ml of 50 mM Tris-HCl (pH 7.6) to prepare 3×10^−5 M calcium carbonate solution. A dilution series was prepared by successively repeating the procedures described above to give the 10^−3 M to 10^−8 M calcium standard solutions.
In 5 ml of 50 mM Tris-HCl (pH 7.6) containing 10 mM DTT and 30 mM EDTA, 5 mg of recombinant apoaequorin (manufactured by Chisso Corporation) was dissolved and 100 μg of coelenterazine analogue dissolved in ethanol in an amount of 1.2-fold equivalent was added to the solution. The mixture was allowed to stand at 4° C. overnight to convert into semi-synthetic aequorin. The resulting semi-synthetic aequorin was concentrated using Amicon Ultra-4 (manufactured by Millipore, Inc., molecular weight cut-off: 10,000) to remove an excessive of coelenterazine analogue. The mixture was then washed 3 times with 3 ml of 30 mM Tris-HCl (pH 7.6) containing 0.05 mM EDTA to give the solution of semi-synthetic aequorin containing 0.05 mM EDTA. This semi-synthetic aequorin solution (2.5 mg/ml) was diluted with 20 mM Tris-HCl (pH 7.6) containing 0.1% BSA (manufactured by Sigma), 0.01 mM EDTA and 150 mM NaCl.
The calcium standard solution prepared as above was dispensed into a 96-well microplate (Nunc #236108) at 50 μl/well and 10 μl of the diluted semi-synthetic aequorin solution was injected into 50 μl of various concentration of calcium standard solution. The luminescence intensity was measured for 60 seconds on a luminescence plate reader Centro LB960 (manufactured by Berthold) and expressed in terms of the maximum intensity (Imax) of luminescence. The luminescence intensity was measured on each semi-synthetic aequorin in the same procedures. Semi-synthetic aequorins for practically use were chosen by the maximum intensity (Imax) of luminescence and the calcium standard curve of semi-synthetic aequorin was prepared.

apoaequorin [8] = molecular target: T1, apoaequorin; test: Luminescence spectra of semi-synthetic aequorins; format: biochemical; settings: semi-synthetic aequorin, calcium added, 22 to 25° C.
Description: In a quartz cell with light path length of 10 mm, 1 ml of 50 mM Tris-HCl (pH 7.6) containing 1 mM EDTA and 100 μl (100 μg protein) of a solution of the regenerated semi-synthetic aequorin were charged. Next, 100 μl of 50 mM Tris-HCl (pH 7.6) containing 0.1 ml of 10 mM calcium chloride solution was added thereto to start the luminescence reaction. The spectra were measured on a spectrofluorimeter (FP-6500, manufactured by Jasco Co., Ltd.) with the excitation light source turned off. The measurement conditions were bandwidth: 20 nm, response: 0.5 second, scan speed: 2000 nm/min and 22 to 25° C. The luminescence spectra measured were corrected.

apoaequorin [9] = molecular target: T1, apoaequorin; test: Luminescence patterns of semi-synthetic aequorins, half decay time; format: biochemical; settings: for Half decay time: semi-synthetic aequorin, time in which luminescence becomes half of maximum, patterns measured for 60 seconds
Description: A solution of the regenerated semi-synthetic aequorin was diluted to 10-fold with 20 mM Tris-HCl (pH 7.6) containing 0.1% BSA (manufactured by Sigma, Inc.), 0.01 mM EDTA and 150 mM NaCl. The dilution was dispensed into a 96-well microplate (Nunc #236108) at 5 μl/well. The luminescence reaction was triggered by injecting 50 mM Tris-HCl (pH 7.6) containing 50 mM calcium chloride solution at 100 μl/well. The luminescence patterns for 60 seconds were measured to determine half decay time of the luminescence (a time period in which the luminescence becomes half of the maximum luminescence intensity).

Gaussia luciferase = test: Substrate specificity and luminescence activity of Gaussia luciferase; format: biochemical; settings: measured for 10 seconds, coelenterazine = 100
Description: Gaussia luciferase was purified by the method described in Japanese Patent Application KOKAI No. 2008-099669 and provided for use. After 1 μl of Gaussia luciferase (0.024 mg/ml) was dissolved in 100 μl of phosphate buffered saline (manufactured by Sigma Inc.) containing 0.01% Tween 20 (manufactured by Sigma Inc.) and 10 mM EDTA, 1 μl of a solution of coelenterazine or its analogue (1 μg/μl) in ethanol was mixed with the solution to start the luminescence reaction. The luminescence activity was measured for 10 seconds on a luminometer luminescencer-PSN AB2200 (manufactured by Atto Co., Ltd.). The luminescence activity was determined by repeating the measurement described above 3 times and expressed in terms of the maximum luminescence intensity (Imax) of luminescence activity.

[10] = 10 mM CaCl2 buffer pH 7.6, excitation 337 nm
[11] = 10 mM EDTA buffer pH 7.6, excitation 337 nm

T1 sequence (P07164 other isoform, or with tags, fused parts or gaps with the stated changes): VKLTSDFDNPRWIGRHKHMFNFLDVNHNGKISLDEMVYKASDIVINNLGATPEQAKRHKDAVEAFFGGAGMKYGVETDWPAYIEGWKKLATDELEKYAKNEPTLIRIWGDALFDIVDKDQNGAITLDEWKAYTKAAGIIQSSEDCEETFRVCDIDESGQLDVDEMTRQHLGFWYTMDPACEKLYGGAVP
T2 sequence (Q9GV45 28-196): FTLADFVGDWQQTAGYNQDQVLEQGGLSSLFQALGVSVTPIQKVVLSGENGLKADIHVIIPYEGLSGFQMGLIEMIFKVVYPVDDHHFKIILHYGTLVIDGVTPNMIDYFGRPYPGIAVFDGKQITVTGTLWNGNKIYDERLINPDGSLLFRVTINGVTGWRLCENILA

SMILES	Coelenteramide (Buffer containing CaCl2) Fluorescence intensity (rlu) [1, 10] [rlu]	Coelenteramide (Buffer containing CaCl2) Maximum fluorescence wavelength λmax (nm) [1, 10] [nm]	Coelenteramide (EDTA-containing buffer) Fluorescence intensity (rlu) [1, 11] [rlu]	Coelenteramide (EDTA-containing buffer) Maximum fluorescence wavelength λmax (nm) [1, 11] [nm]	Semi-synthetic gFP (EDTA-containing buffer) Fluorescence intensity (rlu) (apoaequorin [2])	Semi-synthetic gFP (EDTA-containing buffer) Maximum fluorescence wavelength λmax (nm) (apoaequorin [2])	Luciferase activity of semi-synthetic BFP (%) (apoaequorin [3])	Fluorescence intensity (apoaequorin [4]) [rlu]	Semi-synthetic BFP (Buffer containing CaCl2) Maximum fluorescence wavelength λmax (nm) (apoaequorin [4])	Maximum fluorescence wavelength λmax (nm) (apoaequorin [5])	Relative fluorescence intensity (rlu) (apoaequorin [5])	fluorescence spectra of fluorescent proteins versus emission spectra of semi-synthetic aequorins, in words (apoaequorin [5])	Luminescence activity Imax (%) [6] [%]	Luminescence activity Imax (%) (Renilla luciferase)	calcium standard curve with semi-synthetic aequorin, in words (apoaequorin [7])	Maximum luminescence wavelength λmax (nm) (apoaequorin [8])	half decay time of luminescence compared to coelenterazine (native aequorin), in words (apoaequorin [9])	Half decay time (apoaequorin [9]) [s]	Luminescence activity Imax (%) (Gaussia luciferase)
O=C(Cc1ccc(O)cc1)Nc1ncc(-c2ccc(O)cc2)nc1Cc1ccccc1 [Coelenteramide]	5.9	457.0	4.6	458.0	165.2	482.5	100.0	151.2	468.5										
O=c1c(Cc2ccc(O)cc2)nc2c(-c3cc4ccccc4s3)[nH]c(-c3ccc(O)cc3)cn1-2 [Compound 3h, 8-(Benzo[b]thiophen-2-yl)-2-(4-hydroxybenzyl)-6-(4-hydroxyphenyl)imidazo[1,2-a]pyrazin-3(7H)-one]										537.0	58.7	different luminescence spectra and fluorescence spectra	0.07	0.00	calcium standard curve can be prepared	532.5	longer half decay time	1.71	0.00
O=c1c(Cc2ccc(O)cc2)nc2c(-c3ccc(O)cc3)[nH]c(-c3ccc(O)cc3)cn1-2 [Compound 3j, 2-(4-Hydroxybenzyl)-6,8-bis(4-hydroxyphenyl)imidazo[1,2-a]pyrazin-3(7H)-one]										580.0	13.3	markedly different; also recorded: different luminescence spectra and fluorescence spectra	0.2	0.03	calcium standard curve can be prepared	457.5	markedly prolonged; also recorded: longer half decay time	16.8	0.01
